The numbers were not newly measured in patent US20210002295A1, “SMALL MOLECULE DEGRADERS THAT RECRUIT DCAF15” (Dana-Farber Cancer Institute, Inc., priority 2017, published 2021), which cites them from elsewhere.

Usually Kd stands for a measure of binding affinity in units of concentration.

This data set has as its target bromodomains of BET proteins. As to conditions: stated for small molecule BET inhibitors.

Regarding `Cc1sc2c(c1C)C(c1ccc(Cl)cc1)=N[C@@H](CC(=O)OC(C)(C)C)c1nnc(C)n1-2` [JQ1], the Kd was roughly 0.01 µM.
